Reference: ChEMBL document CHEMBL3044777, “Weed control and sweet maize (Zea mays L.) yield as affected by pyroxasulfone dose” (2011)

Experiments:
Format in all cases: functional
Amaranthus retroflexus = test: Herbicide activity against Amaranthus retroflexus assessed as weed control measured after pre-emergence treatment in southwestern ontario
Setaria viridis = test: Herbicide activity against Setaria viridis (green foxtail) assessed as weed control measured after pre-emergence treatment in southwestern ontario
Amaranthus palmeri [1] = test: Herbicide activity against Amaranthus palmeri S.Watson assessed as weed control at 125 g/ha
Abutilon theophrasti = test: Herbicide activity against Abutilon theophrasti (velvetleaf) assessed as weed control at 31.25 g/ha
Echinochloa crus-galli = test: Herbicide activity against Echinochloa crus-galli (barnyard grass) assessed as weed control at 31.25 g/ha
Chenopodium album = test: Herbicide activity against Chenopodium album assessed as weed control measured after pre-emergence treatment in southwestern ontario
Amaranthus palmeri [2] = test: Herbicide activity against Amaranthus […] (Moq.) Sauer. assessed as weed control at 152 g/ha
Digitaria = test: Herbicide activity against Digitaria assessed as weed control at 274 g/ha in presence of 2% organic matter on soil
Amaranthus = test: Herbicide activity against Amaranthus sp. assessed as weed control at 1000 g/ha
Digitaria sanguinalis = test: Herbicide activity against Digitaria sanguinalis assessed as weed control at 31.25 g/ha

Cn1nc(C(F)(F)F)c(CS(=O)(=O)C2=NOC(C)(C)C2)c1OC(F)F [PYROXASULFONE] gave an I90 (Amaranthus retroflexus) of 93 g/ha, an I90 (Setaria viridis) of 111 g/ha and an Activity (Amaranthus palmeri [1]) of 95%. The Activity (Abutilon theophrasti) was 90%, the Activity (Echinochloa crus-galli) was 90% and the I90 (Chenopodium album) was 499 g/ha. The Activity (Amaranthus palmeri [2]) was 90%, the Activity (Digitaria) was 90% and the Activity (Amaranthus) was 90%. For the same compound, the Activity (Digitaria sanguinalis) was 90%.
